Reference: article PMC5885031, “Chlamydia trachomatis dapF Encodes a Bifunctional Enzyme Capable of Both D-Glutamate Racemase and Diaminopimelate Epimerase Activities” (mBio, 2018)

How the values were obtained:
Assay type in all cases: biochemical
[1] = target: T1, DapFCT-His (chlamydial DapF, DAP epimerase) (Chlamydia trachomatis, UniProt B0B802); assay: glutamate racemase assay coupled to L-glutamate dehydrogenase (NADPH, […] nm); details: 20 mM D-Glu, 10 uM PLP, 10 mM MgCl2, 20 mM Tris-Cl pH 8.0, 37 C; racemization to L-Glu
T1 construct: 6-His tag at 5' end (N-terminal), tag not removed; pTBSG vector, E. coli BL21(DE3); Ni-NTA purified; ~32 kDa
T1 sequence (B0B802 1-275): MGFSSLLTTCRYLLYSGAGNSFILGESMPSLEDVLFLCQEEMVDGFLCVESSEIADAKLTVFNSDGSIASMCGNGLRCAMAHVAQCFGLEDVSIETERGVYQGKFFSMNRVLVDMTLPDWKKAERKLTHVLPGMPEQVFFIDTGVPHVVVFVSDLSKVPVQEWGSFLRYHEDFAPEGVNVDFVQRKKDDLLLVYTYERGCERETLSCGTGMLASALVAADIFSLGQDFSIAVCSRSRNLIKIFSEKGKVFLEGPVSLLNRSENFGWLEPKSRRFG

[2] = target: T1, DapFCT-His (chlamydial DapF, DAP epimerase); assay: as above; details: 10 mM D-Glu as substrate, 10 uM PLP, 10 mM MgCl2, 20 mM Tris-Cl pH 8.0, 37 C; competing substrate
[3] = target: T1, DapFCT-His (chlamydial DapF, DAP epimerase); assay: glutamate racemase coupled assay with and without PLP; details: 10 uM PLP, D-Glu as substrate, 10 mM MgCl2, 20 mM Tris-Cl pH 8.0, 37 C; required for racemase activity

SMILES: N[C@H](CCC(=O)O)C(=O)O [D-Glu]
- glutamate racemase assay coupled to L-glutamate dehydrogenase (NADPH, 340 nm) [1]: Purified DapFCT-His was assayed for glutamate racemase activity with D-Glu as the substrate

SMILES: N[C@@H](CCC[C@H](N)C(=O)O)C(=O)O [L,L-DAP]
- % decrease of glutamate racemase activity at 10 mM L,L-DAP [2]: 47%

SMILES: Cc1ncc(COP(=O)(O)O)c(C=O)c1O [pyridoxal phosphate]
- glutamate racemase coupled assay with and without PLP [3]: D-Glu racemization to L-Glu was found to be PLP dependent (Fig. 4a)
